# Data taken from patent US20080085888A1, “Therapeutic Combinations” (priority 2006, published 2008).
# Tests used:
# male Long Evans rats = experiment: Blockade of D-amphetamine-induced locomotor activity (LMA); assay type: in vivo, rat; details: for attenuation of amphetamine-induced locomotor activity: D-amphetamine 1 mg/kg s.c.
# male, Long Evans rats = experiment: Spontaneous locomotor activity (sLMA), quetiapine-induced sedation
# Excerpt: I. Attenuation of Quetiapine-Induced Sedation Using Spontaneous Locomotor Activity (sLMA)
# Quetiapine is known to have sedative properties in humans. Quetiapine can induce sedation in rats and is manifested in various behaviors including reductions in spontaneous locomotor activity (sLMA). A test compound that increases sLMA in quetiapine treated rats may reduce quetiapine-induced sedation in human subjects.
# The general procedure was to assess the effect of a particular drug on sLMA in rats by administering the drug after baseline assessment and then waiting an appropriate amount of time for the drug to achieve significant levels in plasma and brain.
# Quetiapine was solubilized in saline plus some drops of 85% lactic acid and sonicated for around 20-30 minutes then adjusted with NaOH 1N for pH ˜4.8 to 5.0. The solution was stirred during the experiment to ensure uniform composition prior to administration. Quetiapine was administered by s.c. injection 15 minutes before testing. The dose volume was 4 ml/kg.
# Compound b was dissolved in H2O and administered by oral gavage (p.o.) 30 minutes before testing with a dose volume of 1 ml/kg.
# The effect of Compound b alone on sLMA was tested by administering doses of 0.006, 0.019, 0.06 or 0.19 mg/kg by oral gavage (p.o.) 30 minutes before testing. […]
# Exploratory activity was monitored and quantified using open field activity systems (hardware and software) purchased from Med Associates. […]
# Statistical analysis was made of total distance traveled over the 5 minutes test period for a spontaneous locomotor activity using one-way analysis ANOVA and Turkey's multiple-range analysis. All values are expressed as mean and SD.
# CF-1 male mice = experiment: Haloperidol-induced catalepsy model of EPS; assay type: in vivo, mouse
# Excerpt: III. Blockade of Haloperidol-Induced Catalepsy
# Haloperidol-induced catalepsy model of EPS: Haloperidol is a typical or first-generation antipsychotic drug that while effective is prone to produce extrapyramidal symptoms (EPS) in humans. Other antipsychotic drugs (e.g. chlorpromazine, risperidone) can also cause EPS in patients and this side effect can limit the use of these drugs. In rodents, drug-induced catalepsy (a trance-like state of waxy immobility) can be used to assess the risk of EPS for antipsychotic drugs. Haloperidol reliably induces catalepsy in mice and rats. Test compounds that reduce catalepsy in haloperidol-treated rats may reduce antipsychotic drug-induced EPS.
# Haloperidol-induced catalepsy in mice model: CF-1 male mice (Charles River, 20-30 gm, 10 mice per dose) were dosed orally with compound (b) at 0.06, 0.19, 0.6 and 1.9 mg/kg or vehicle (distilled water). Thirty minutes later, all mice were dosed with 2 mg/kg of haloperidol s.c. At 60 minutes and 4 hours after haloperidol dosing, the experimenter gently placed both forepaws of each animal on a metal bar (4 mm in diameter) that was fixed horizontally 5 cm above the test floor. The length of time (in seconds) during which each mouse maintained the initial forepaw bar position was recorded (cataleptic pose). Maximum cut-off time was 60 seconds. The same experimental design was performed on two consecutive days, and results were combined from both experiments. Therefore, the final results are from groups of 20 mice.
# rodent = details: cited from earlier work; for effect on haloperidol-induced catalepsy: Levin and Lippiello 1999
compound,measurement,setting,value
"C[C@H](N)Cc1ccccc1 [Amphetamine, D-amphetamine]",locomotor activity in habituated rats,"male Long Evans rats; D-amphetamine 1 mg/kg s.c. alone, p<0.001",significantly increased
"CN[C@@H](C)C/C=C/c1cncc(OC(C)C)c1.O=C(O)c1ccc(O)cc1 [Compound b, (2S)-(4E)-N-Methyl-5-[3-(5-isopropoxypyridin)yl]-4-penten-2-amine p-hydroxybenzoate]",reduction of D-amphetamine-induced locomotor activity,male Long Evans rats; Compound b alone 0.19 mg/kg p.o.,did not significantly reduce
same,reduction of D-amphetamine-induced locomotor activity,"male Long Evans rats; combination: Compound b 0.19 mg/kg p.o. with quetiapine 10 mg/kg s.c., vs D-amphetamine alone group",did significantly reduce
same,reduction of D-amphetamine-induced locomotor activity,male Long Evans rats; combination: Compound b 0.019 or 0.06 mg/kg p.o. with quetiapine 10 mg/kg s.c.,did not significantly reduce
same,reduction in sLMA compared to vehicle-vehicle controls,"male, Long Evans rats; Compound b 0.19 mg/kg p.o. administered before quetiapine 40 mg/kg s.c. (combination)",did not result in a significant reduction in sLMA
same,suppression of sLMA,"male, Long Evans rats; Compound b 0.19 mg/kg p.o. and then vehicle",no significant suppression of sLMA
same,effect on sLMA (total distance traveled),"male, Long Evans rats; Compound b alone, 0.006, 0.019, 0.06 and 0.19 mg/kg p.o., 30 min before testing, 5 min test",no significant effect
same,reduction of haloperidol induced catalepsy,"CF-1 male mice; 60 minute time point, Compound b 0.06, 0.19, 0.6 and 1.9 mg/kg p.o. 30 min before haloperidol 2 mg/kg s.c., P<0.05",reduced haloperidol induced catalepsy
same,reduction of haloperidol induced catalepsy,"CF-1 male mice; 4 hour time point, 1.9 mg/kg p.o. (only this dose) before haloperidol 2 mg/kg s.c.",significant reduction
"O=C(CCCN1CCC(O)(c2ccc(Cl)cc2)CC1)c1ccc(F)cc1 [Haloperidol, haloperidol]",mice with catalepsy of up to 60 seconds,CF-1 male mice; haloperidol 2 mg/kg s.c. alone,60-90 % of mice
CNCC/C=C/c1cccnc1 [RJR 2403],effect on haloperidol-induced catalepsy,rodent,"did not significantly worsen haloperidol-induced catalepsy, they did not reduce it either"
CN1CCCC1c1cccnc1 (centres unmarked) [nicotine],effect on haloperidol-induced catalepsy,rodent,"did not significantly worsen haloperidol-induced catalepsy, they did not reduce it either"
same,effect on catalepsy in rodent,rodent; Sanberg et al. 1993,can worsen catalepsy
"OCCOCCN1CCN(C2=Nc3ccccc3Sc3ccccc32)CC1 [quetiapine, 11-[4-[2-(2-hydroxyethoxy)ethyl]-1-piperazinyl]dibenzo[b,f][1,4]thiazepine]",attenuation of amphetamine-induced locomotor activity,male Long Evans rats; quetiapine alone 10 mg/kg s.c.,did not significantly attenuate
same,attenuation of amphetamine-induced locomotor activity,"male Long Evans rats; quetiapine alone 10 mg/kg s.c., listed as Quetiapine",not
same,attenuation of amphetamine-induced locomotor activity,"male Long Evans rats; quetiapine alone 20, 40 and 60 mg/kg s.c.",significantly attenuated
same,threshold for significantly reducing D-amphetamine-induced locomotor activity,male Long Evans rats; quetiapine alone s.c.,20 mg/kg
